In this test the target is T1, PD-1/PD-L1 (Homo sapiens, UniProt Q9NZQ7).
T1 construct: TVMV protease site linker (C); made in house; host or cells: HEK293T cells
The test can be described thus: PD-1/PD-L1 Homogenous Time-Resolved Fluorescence (HTRF) binding assay. The note with it: PD-L1-His 10 nM, PD-1-Ig 20 nM. The method, boiled down: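 Inhibitors pre-incubated 15 min with PD-L1-His extracellular domain (10 nM final) in dPBS with 0.1% BSA and 0.05% Tween-20, then PD-1-Ig (20 nM final) added for a further 15 min. Read-out by HTRF with europium cryptate anti-Ig (1 nM) and APC anti-His (20 nM). Related pairs: PD-1-Ig/PD-L2-His (20/5 nM), CD80-His/PD-L1-Ig (100/10 nM).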
For orientation: Time-resolved FRET reads energy transfer from a long-lived donor to a nearby acceptor.

T1 sequence (Q9NZQ7 18-239): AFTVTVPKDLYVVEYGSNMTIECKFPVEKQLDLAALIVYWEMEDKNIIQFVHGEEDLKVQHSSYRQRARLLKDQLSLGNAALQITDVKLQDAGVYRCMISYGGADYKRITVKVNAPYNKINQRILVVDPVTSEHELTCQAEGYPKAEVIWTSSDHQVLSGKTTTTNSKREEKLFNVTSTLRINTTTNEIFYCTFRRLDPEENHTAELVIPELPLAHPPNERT

Usually IC50 stands for the concentration that inhibits the measured activity by half. Low readings indicate greater potency, high ones weaker potency. Turning to `Cc1c(COc2cc(OCc3cncc(C#N)c3)c(CN(C)Cc3ccnc(C#N)n3)cc2Cl)cccc1-c1cccc(OCCCN2CC[C@@H](O)C2)c1C` [Example 2045, (R)-4-(((5-chloro-2-((5-cyanopyridin-3-yl)methoxy)-4-((3′-(3-(3-hydroxypyrrolidin-1-yl)propoxy)-2,2′-dimethyl-[1,1′-biphenyl]-3-yl)methoxy)benzyl) (methyl)amino)methyl)pyrimidine-2-carbonitrile], the IC50 is 16.4 nM. For `Cc1c(COc2cc(OCc3cncc(C#N)c3)c(CNCc3cncs3)cc2Cl)cccc1-c1cccc(OC2CCN(C)CC2)c1Cl` [Example 2046, 5-((4-chloro-5-((2′-chloro-2-methyl-3′-((1-methylpiperidin-4-yl)oxy)-[1,1′-biphenyl]-3-yl)methoxy)-2-(((thiazol-5-ylmethyl)amino)methyl)phenoxy)methyl)nicotinonitrile] the value was 32.3 nM; for `Cc1c(COc2cc(OCc3cncc(C#N)c3)c(CNCc3cnc[nH]3)cc2Cl)cccc1-c1cccc(OC2CCN(C)CC2)c1Cl` [Example 2047, 5-((2-((((1H-imidazol-5-yl)methyl)amino)methyl)-4-chloro-5-((2′-chloro-2-methyl-3′-((1-methylpiperidin-4-yl)oxy)-[1,1′-biphenyl]-3-yl)methoxy)phenoxy)methyl)nicotinonitrile], 3.5 nM; for `Cc1c(COc2cc(OCc3cncc(C#N)c3)c(CN(C)Cc3cncs3)cc2Cl)cccc1-c1cccc(OC2CCN(C)CC2)c1Cl` [Example 2048, 5-((4-chloro-5-((2′-chloro-2-methyl-3′-((1-methylpiperidin-4-yl)oxy)-[1,1′-biphenyl]-3-yl)methoxy)-2-((methyl(thiazol-5-ylmethyl)amino)methyl)phenoxy)methyl)nicotinonitrile], 355 nM. For `Cc1c(COc2cc(OCc3cncc(C#N)c3)c(CN(C)Cc3cnc[nH]3)cc2Cl)cccc1-c1cccc(OC2CCN(C)CC2)c1Cl` [Example 2049, 5-((2-((((1H-imidazol-5-yl)methyl)(methyl)amino)methyl)-4-chloro-5-((2′-chloro-2-methyl-3′-((1-methylpiperidin-4-yl)oxy)-[1,1′-biphenyl]-3-yl)methoxy)phenoxy)methyl)nicotinonitrile] the value was 1.6 nM; for `Cc1c(COc2cc(OCc3cncnc3)c(CNCc3ncc[nH]3)cc2Cl)cccc1-c1cccc(OCCCN2CC[C@@H](O)C2)c1C` [Example 2050, (R)-1-(3-((3′-((4-((((1H-imidazol-2-yl)methyl)amino)methyl)-2-chloro-5-(pyrimidin-5-ylmethoxy)phenoxy)methyl)-2,2′-dimethyl-[1,1′-biphenyl]-3-yl)oxy)propyl)pyrrolidin-3-ol], 1.7 nM; for `Cc1c(COc2cc(OCc3cncnc3)c(CNCc3cn[nH]c3)cc2Cl)cccc1-c1cccc(OCCCN2CC[C@@H](O)C2)c1C` [Example 2051, (R)-1-(3-((3′-((4-((((1H-pyrazol-4-yl)methyl)amino)methyl)-2-chloro-5-(pyrimidin-5-ylmethoxy)phenoxy)methyl)-2,2′-dimethyl-[1,1′-biphenyl]-3-yl)oxy)propyl)pyrrolidin-3-ol], 2 nM. For `Cc1c(COc2cc(OCc3cncc(C#N)c3)c(CNCc3cn[nH]c3)cc2Cl)cccc1-c1cccc(OC2CCC(N3CCCC3)CC2)c1Cl` (stereo not shown) [Example 2052, 5-((2-((((1H-pyrazol-4-yl)methyl)amino)methyl)-4-chloro-5-((2′-chloro-2-methyl-3′-((4-(pyrrolidin-1-yl)cyclohexyl)oxy)-[1,1′-biphenyl]-3-yl)methoxy)phenoxy)methyl)nicotinonitrile] the value was 9.6 nM.

Regarding `Cc1c(COc2cc(OCc3cncc(C#N)c3)c(CNCc3ncc[nH]3)cc2Cl)cccc1-c1cccc(OC2CCC(N3CCCC3)CC2)c1Cl` (stereo not shown) [Example 2053, 5-((2-((((1H-imidazol-2-yl)methyl)amino)methyl)-4-chloro-5-((2′-chloro-2-methyl-3′-((4-(pyrrolidin-1-yl)cyclohexyl)oxy)-[1,1′-biphenyl]-3-yl)methoxy)phenoxy)methyl)nicotinonitrile], the IC50 is 2.9 nM. For `Cc1c(COc2cc(OCc3cccnn3)c(CNCc3cn[nH]c3)cc2Cl)cccc1-c1cccc(OCC2CCCN(C)C2)c1Cl` (stereo not shown) [Example 2054, N-((1H-pyrazol-4-yl)methyl)-1-(5-chloro-4-((2′-chloro-2-methyl-3′-((1-methylpiperidin-3-yl)methoxy)-[1,1′-biphenyl]-3-yl)methoxy)-2-(pyridazin-3-ylmethoxy)phenyl)methanamine] the value was 5.6 nM. As for `Cc1c(COc2cc(OCc3cccnn3)c(CNCc3ncc[nH]3)cc2Cl)cccc1-c1cccc(OCC2CCCN(C)C2)c1Cl` (stereo not shown) [Example 2055, N-((1H-imidazol-2-yl)methyl)-1-(5-chloro-4-((2′-chloro-2-methyl-3′-((1-methylpiperidin-3-yl)methoxy)-[1,1′-biphenyl]-3-yl)methoxy)-2-(pyridazin-3-ylmethoxy)phenyl)methanamine], the figure is 3.1 nM; as for `COc1cc(OCc2cccc(-c3cccc(OCC4CCCN(C)C4)c3Cl)c2C)c(Cl)cc1CNCc1cn[nH]c1` (stereo not shown) [Example 2056, N-((1H-pyrazol-4-yl)methyl)-1-(5-chloro-4-((2′-chloro-2-methyl-3′-((1-methylpiperidin-3-yl)methoxy)-[1,1′-biphenyl]-3-yl)methoxy)-2-methoxyphenyl)methanamine], 3.5 nM. For `COc1cc(OCc2cccc(-c3cccc(OCC4CCCN(C)C4)c3Cl)c2C)c(Cl)cc1CNCc1ncc[nH]1` (stereo not shown) [Example 2057, N-((1H-imidazol-2-yl)methyl)-1-(5-chloro-4-((2′-chloro-2-methyl-3′-((1-methylpiperidin-3-yl)methoxy)-[1,1′-biphenyl]-3-yl)methoxy)-2-methoxyphenyl)methanamine] the value was 6.3 nM; for `Cc1c(COc2cc(OCc3cnccn3)c(CNCc3cccnn3)cc2Cl)cccc1-c1cccc(OCC2CCCN(C)C2)c1Cl` (stereo not shown) [Example 2058, N-(5-chloro-4-((2′-chloro-2-methyl-3′-((1-methylpiperidin-3-yl)methoxy)-[1,1′-biphenyl]-3-yl)methoxy)-2-(pyrazin-2-ylmethoxy)benzyl)-1-(pyridazin-3-yl)methanamine], 3.9 nM. In turn, `Cc1c(COc2cc(OCc3cnccn3)c(CNCc3ncccn3)cc2Cl)cccc1-c1cccc(OCC2CCCN(C)C2)c1Cl` (stereo not shown) [Example 2059, N-(5-chloro-4-((2′-chloro-2-methyl-3′-((1-methylpiperidin-3-yl)methoxy)-[1,1′-biphenyl]-3-yl)methoxy)-2-(pyrazin-2-ylmethoxy)benzyl)-1-(pyrimidin-2-yl)methanamine] yielded an IC50 of 4.4 nM. `Cc1c(COc2cc(OCc3cnccn3)c(CNCc3c[nH]cn3)cc2Cl)cccc1-c1cccc(OCC2CCCN(C)C2)c1Cl` (stereo not shown) [Example 2060, N-((1H-imidazol-4-yl)methyl)-1-(5-chloro-4-((2′-chloro-2-methyl-3′-((1-methylpiperidin-3-yl)methoxy)-[1,1′-biphenyl]-3-yl)methoxy)-2-(pyrazin-2-ylmethoxy)phenyl)methanamine] registered an IC50 of 1.9 nM. As for `Cc1c(COc2cc(OCc3cncc(C#N)c3)c(CNCc3cccnn3)cc2Cl)cccc1-c1cccc(OCc2cncnc2)c1Cl` [Example 2061, 5-((4-chloro-5-((2′-chloro-2-methyl-3′-(pyrimidin-5-ylmethoxy)-[1,1′-biphenyl]-3-yl)methoxy)-2-(((pyridazin-3-ylmethyl)amino)methyl)phenoxy)methyl)nicotinonitrile], the figure is 16.9 nM; as for `Cc1c(COc2cc(OCc3cncc(C#N)c3)c(CNCc3c[nH]cn3)cc2Cl)cccc1-c1cccc(OCc2cncnc2)c1Cl` [Example 2062, 5-((2-((((1H-imidazol-4-yl)methyl)amino)methyl)-4-chloro-5-((2′-chloro-2-methyl-3′-(pyrimidin-5-ylmethoxy)-[1,1′-biphenyl]-3-yl)methoxy)phenoxy)methyl)nicotinonitrile], 7.6 nM. `Cc1c(COc2cc(OCc3cncc(C#N)c3)c(CNCc3ncccn3)cc2Cl)cccc1-c1cccc(OCc2cncnc2)c1Cl` [Example 2063, 5-((4-chloro-5-((2′-chloro-2-methyl-3′-(pyrimidin-5-ylmethoxy)-[1,1′-biphenyl]-3-yl)methoxy)-2-(((pyrimidin-2-ylmethyl)amino)methyl)phenoxy)methyl)nicotinonitrile] gave a half-maximal inhibitory concentration (IC50) of 28.5 nM. This IC50 is about 3.8-fold higher than that of the molecule before.

The molecule `Cc1c(COc2cc(OCc3cncc(C#N)c3)c(CNCc3cccnn3)cc2Cl)cccc1-c1cccc(OCC2CCCN(CCC(F)(F)F)C2)c1Cl` (stereo not shown) [Example 2064, 5-((4-chloro-5-((2′-chloro-2-methyl-3′-((1-(3,3,3-trifluoropropyl)piperidin-3-yl)methoxy)-[1,1′-biphenyl]-3-yl)methoxy)-2-(((pyridazin-3-ylmethyl)amino)methyl)phenoxy)methyl)nicotinonitrile] had an IC50 of 179 nM. This IC50 lies about 6.3-fold higher than the previous one.

In the case of `Cc1c(COc2cc(OCc3cncc(C#N)c3)c(CNCc3c[nH]cn3)cc2Cl)cccc1-c1cccc(OCC2CCCN(CCC(F)(F)F)C2)c1Cl` (stereo not shown) [Example 2065, 5-((2-((((1H-imidazol-4-yl)methyl)amino)methyl)-4-chloro-5-((2′-chloro-2-methyl-3′-((1-(3,3,3-trifluoropropyl)piperidin-3-yl)methoxy)-[1,1′-biphenyl]-3-yl)methoxy)phenoxy)methyl)nicotinonitrile], the IC50 was determined as 28 nM.

Regarding `Cc1c(COc2cc(OCc3cncc(C#N)c3)c(CNCc3ncccn3)cc2Cl)cccc1-c1cccc(OCC2CCCN(CCC(F)(F)F)C2)c1Cl` (stereo not shown) [Example 2066, 5-((4-chloro-5-((2′-chloro-2-methyl-3′-((1-(3,3,3-trifluoropropyl)piperidin-3-yl)methoxy)-[1,1′-biphenyl]-3-yl)methoxy)-2-(((pyrimidin-2-ylmethyl)amino)methyl)phenoxy)methyl)nicotinonitrile], the IC50 was 75.9 nM.

Source of the values: patent US20240124417A1, “COMPOUNDS USEFUL AS IMMUNOMODULATORS” (Bristol-Myers Squibb Company, priority 2019, published 2024).
